The source of these data is patent publication US10017480B2, “Compounds having a selective PDE4D inhibiting activity” (UNIVERSITÂ DEGLI STUDI DI GENOVA, priority 2014, dated 2018).

The structures appear in SMILES notation. Where “and” joins values, the source holds several entries; their conditions need not be identical. Identical values can stand only once. Counter-ions that a name gives are not always drawn. Like-named read-outs stand apart in the source and are kept apart here.

The target in data set [1] is PDE4D3 (Homo sapiens, UniProt Q08499). In words: PDE4D3 enzyme inhibition (IMAP). The class given is biochemical. On the procedure:
Compound's evaluation on PDE4D3, PDE4A4, PDE4B2 and PDE4C2 enzyme assays were performed by Scottish Biomedical (Glasgow, Scotland, UK) using recombinant human PDE enzymes expressed in a baculoviral system. The preliminary screening assays were performed by the IMAP technology (Molecular Devices), which is based on the high affinity binding of phosphate by immobilized metal coordination complexes on nanoparticles. The binding reagent complexes with phosphate groups on nucleotide monophosphate generated from cyclic nucleotides (cAMP) through phosphodiesterases. With fluorescence polarization detection, binding causes a change in the rate of the molecular motion of the phosphate bearing molecule and results in an increase in the fluorescence polarization value observed for the fluorescent label attached to the substrate. […] All compounds were solved in DMSO at 10^−2 M concentration and then diluted with water to the final suitable concentrations. All synthesized compounds were tested preliminary on PDE4D3 at 10^−5 M concentration, in duplicate. Results are expressed as a percent inhibition of control activity (see table 1).
IC50 values are reported at μM concentration in table 1. […] The results are reported (as percent of inhibition at 10 μM concentration) in Table 1.

Chain of PDE4D3 (Q08499 1-673 isoform Q08499-2): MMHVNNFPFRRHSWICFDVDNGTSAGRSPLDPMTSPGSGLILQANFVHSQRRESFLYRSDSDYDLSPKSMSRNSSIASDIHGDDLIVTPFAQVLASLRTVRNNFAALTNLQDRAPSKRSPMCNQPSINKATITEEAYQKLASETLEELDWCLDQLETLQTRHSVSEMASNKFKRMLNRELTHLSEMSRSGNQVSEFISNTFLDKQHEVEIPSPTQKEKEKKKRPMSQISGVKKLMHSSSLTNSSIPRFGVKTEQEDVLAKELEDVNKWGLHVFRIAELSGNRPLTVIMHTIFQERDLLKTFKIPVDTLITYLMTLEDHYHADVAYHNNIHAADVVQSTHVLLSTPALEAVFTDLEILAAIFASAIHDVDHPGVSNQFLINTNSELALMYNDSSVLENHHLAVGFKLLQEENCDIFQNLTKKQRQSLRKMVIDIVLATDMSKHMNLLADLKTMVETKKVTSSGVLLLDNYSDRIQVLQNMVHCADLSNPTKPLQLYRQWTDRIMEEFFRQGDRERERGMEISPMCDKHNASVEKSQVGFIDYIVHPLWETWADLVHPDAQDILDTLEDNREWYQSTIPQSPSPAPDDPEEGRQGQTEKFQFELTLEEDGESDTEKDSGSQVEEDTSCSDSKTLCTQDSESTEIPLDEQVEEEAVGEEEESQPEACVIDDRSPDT

`COc1ccc(-c2cc(C(=O)CN3CCOCC3)on2)cc1OC1CCCC1` (as salt: hydrochloride) [XVa, 1-{3-[3-(Cyclopentyloxy)-4-methoxyphenyl]isoxazol-5-yl}-2-morpholin-4-ylethanone hydrochloride]: the melting point is 175 °C (dec.).

Turning to `COc1ccc(-c2cc(C(=O)CN3CC(C)OC(C)C3)on2)cc1OC1CCCC1` (centres unmarked) (as salt: hydrochloride) [XVb, 1-{3-[3-(Cyclopentyloxy)-4-methoxyphenyl]isoxazol-5-yl}-2-(2,6-dimethylmorpholin-4-yl)ethanone hydrochloride], the melting point is 200 °C (dec.). As to `COc1ccc(-c2ccn(CC(O)CN3CCOCC3)n2)cc1OC1CCCC1` (centres unmarked) (as salt: salt) [XVIIIa, 1-{3-[3-(Cyclopentyloxy)-4-methoxyphenyl]-1H-pyrazol-1-yl}-3-morpholin-4-ylpropan-2-ol dihydrocloride], the melting point was in the range of 162 to 163 °C.

The compound `COc1ccc(-c2ccn(CC(O)CN3CC(C)OC(C)C3)n2)cc1OC1CCCC1` (centres unmarked) (as salt: salt) [XVIIIb, 1-{3-[3-(Cyclopentyloxy)-4-methoxyphenyl]-1H-pyrazol-1-yl}-3-(2,6-dimethylmorpholin-4-yl)propan-2-ol dihydrocloride] had a melting point of 188 to 189 °C. In the case of `COc1ccc(C2=NOC(C(=O)N3CCOCC3)C2)cc1OC1CCCC1` (centres unmarked) [XIIIa, 4-({3-[3-(Cyclopentyloxy)-4-methoxyphenyl]-4,5-dihydroisoxazol-5-yl}carbonyl)morpholine], the melting point lay in the range of 115 to 116 °C. The “PDE4D3 % inib at 10 μM” value in data set [1] (10 μM, in duplicate) is given as 21%. For `COc1ccc(C2=NOC(C(=O)N3CC(C)OC(C)C3)C2)cc1OC1CCCC1` (centres unmarked) [XIIIb, 4-({3-[3-(Cyclopentyloxy)-4-methoxyphenyl]-4,5-dihydroisoxazol-5-yl}carbonyl)-2,6-dimethylmorpholine] the same measures were 127 to 129 °C and 29%. In the same order, the values of `COc1ccc(C2=NOC(C(=O)N3CCC(O)CC3)C2)cc1OC1CCCC1` (centres unmarked) [XIIIc, 1-({3-[3-(Cyclopentyloxy)-4-methoxyphenyl]4,5-dihydroisoxazol-5-yl}carbonyl)piperidin-4-ol] are 134 °C and 26%. The compound `COc1ccc(C2=NOC(C(=O)N3CCCC3)C2)cc1OC1CCCC1` (centres unmarked) [XIIId, 3-[3-(Cyclopentyloxy)-4-methoxyphenyl]-5-(pyrrolidin-1-ylcarbonyl)-4,5-dihydroisoxazole] came in with a melting point of 126 to 127 °C. The “PDE4D3 % inib at 10 μM” value in data set [1] (10 μM, in duplicate) is 15%. In the same order, the values of `COc1ccc(C2=NOC(C(=O)N3CCCCC3)C2)cc1OC1CCCC1` (centres unmarked) [XIIIe, 1-({3-[3-(Cyclopentyloxy)-4-methoxyphenyl]-4,5-dihydroisoxazol-5-yl}carbonyl)piperidine] are 130 °C and 8%. For `COc1ccc(C2=NOC(C(=O)N(CCO)CCO)C2)cc1OC1CCCC1` (centres unmarked) [XIIIf, 3-[3-(Cyclopentyloxy)-4-methoxyphenyl]-N,N-bis(2-hydroxyethyl)-4,5-dihydroisoxazole-5-carboxamide], the “PDE4D3 % inib at 10 μM” value in data set [1] (10 μM, in duplicate) came out at 33%. With `COc1ccc(C2=NOC(CC(=O)N3CCOCC3)C2)cc1OC1CCCC1` (centres unmarked) [XIVa, 4-({3-[3-(Cyclopentyloxy)-4-methoxyphenyl]-4,5-dihydroisoxazol-5-yl}acetyl)morpholine], the melting point is 144 °C and 144 to 145 °C. Also, the “PDE4D3 % inib at 10 μM” value in data set [1] (10 μM, in duplicate) is recorded as 29%. `COc1ccc(C2=NOC(CC(=O)N3CCC(O)CC3)C2)cc1OC1CCCC1` (centres unmarked) [XIVc, 1-({3-[3-(Cyclopentyloxy)-4-methoxyphenyl]-4,5-dihydroisoxazol-5-yl}acetyl)piperidin-4-ol] displayed a melting point of 134 °C. In data set [1] (10 μM, in duplicate), the “PDE4D3 % inib at 10 μM” value was determined as 30%.

As to `COc1ccc(C2=NOC(CC(=O)N3CCCCC3)C2)cc1OC1CCCC1` (centres unmarked) [XIVe, 1-({3-[3-(Cyclopentyloxy)-4-methoxyphenyl]-4,5-dihydroisoxazol-5-yl}acetyl)piperidine], the melting point lay within 104 to 106 °C. The “PDE4D3 % inib at 10 μM” value in data set [1] (10 μM, in duplicate) is recorded as 40%. For `COc1ccc(C2=NOC(CC(=O)N3CCNCC3)C2)cc1OC1CCCC1` (centres unmarked) [XIVf, 1-({3-[3-(Cyclopentyloxy)-4-methoxyphenyl]-4,5-dihydroisoxazol-5-yl}acetyl)piperazine] the same measures were 108 to 111 °C and 23%. Consider `COc1ccc(-c2ccn(CC(O)CN3CCC(O)CC3)n2)cc1OC1CCCC1` (centres unmarked) [XVIIIc, 1-(3-{3-[3-(cyclopentyloxy)-4-methoxyphenyl]4H-pyrazol-1-yl}-2-hydroxypropyl)piperidin-4-ol], for which the “PDE4D3 % inib at 10 μM” value in data set [1] (10 μM, in duplicate) was 2%.

Regarding `COc1ccc(-c2cc(C(=O)N3CCOCC3)on2)cc1OC1CCCC1` [XVIIa, 4-({3-[3-(Cyclopentyloxy)-4-methoxyphenyl]isoxazol-5-yl}carbonyl)morpholine], the melting point lay within 100 to 101 °C. Besides, the “PDE4D3 % inib at 10 μM” value in data set [1] (10 μM, in duplicate) turned out to be 41%. For the compound `COc1ccc(-c2cc(C(=O)CN3CCOCC3)on2)cc1OC1CCCC1` [XVa, 1-{3-[3-(Cyclopentyloxy)-4-methoxyphenyl]isoxazol-5-yl}-2-morpholin-4-ylethanone hydrochloride], in data set [1] (10 μM, in duplicate), the “PDE4D3 % inib at 10 μM” value worked out at 39%. For the compound `COc1ccc(-c2cc(C(=O)CN3CC(C)OC(C)C3)on2)cc1OC1CCCC1` (centres unmarked) [XVb, 1-{3-[3-(Cyclopentyloxy)-4-methoxyphenyl]isoxazol-5-yl}-2-(2,6-dimethylmorpholin-4-yl)ethanone hydrochloride], the “PDE4D3 % inib at 10 μM” value in data set [1] (10 μM, in duplicate) is 13%.

Regarding `OC1CCN(CC(O)Cn2ccc(-c3ccc(OC(F)F)c(OC4CCCC4)c3)n2)CC1` (centres unmarked) [XXIIc, 1-(3-{3-[3-(cyclopentyloxy)-4-difluoromethoxy-phenyl]-pyrazol-1-yl}-2-hydroxy-propyl)-piperidin-4-ol], the “PDE4D3 % inib at 10 μM” value in data set [1] amounted to 73%. Consider `COc1ccc(-c2c[nH]cc2C(=O)N2CCOCC2)cc1OC1CCCC1` [XXVIa, {4-[3-(Cyclopentyloxy)-4-methoxy-phenyl]-1H-pyrrol-3-yl}-morpholin-4-yl-methanone], for which the “PDE4D3 % inib at 10 μM” value in data set [1] (10 μM, in duplicate) worked out at 13%. In the case of `COc1ccc(-c2c[nH]cc2C(=O)N2CC(C)OC(C)C2)cc1OC1CCCC1` (centres unmarked) [XXVIb, {4-[3-(Cyclopentyloxy)-4-methoxy-phenyl]-1H-pyrrol-3-yl}-(2,6-dimethyl-morpholin-4-yl)-methanone], in data set [1] (10 μM, in duplicate), the “PDE4D3 % inib at 10 μM” value is 6%. As for `COc1ccc(-c2c[nH]cc2C(=O)N2CCC(O)CC2)cc1OC1CCCC1` [XXVIc, {4-[3-(Cyclopentyloxy)-4-methoxy-phenyl]-1H-pyrrol-3-yl}-(4-hydroxy-piperidin-1-yl)-methanone], the “PDE4D3 % inib at 10 μM” value in data set [1] (10 μM, in duplicate) is 15%. Turning to `COc1ccc(-c2ccn(CC(O)CN3CCOCC3)c2)cc1OC1CCCC1` (centres unmarked) [XXVa, 1-{3-[3-(Cyclopentyloxy)-4-methoxy-phenyl]-pyrrol-1-yl}-3-morpholin-4-yl-propan-2-ol], the “PDE4D3 % inib at 10 μM” value in data set [1] (10 μM, in duplicate) came to 21%.

In the case of `COc1ccc(-c2ccn(CC(O)CN3CC(C)OC(C)C3)c2)cc1OC1CCCC1` (centres unmarked) [XXVb, 1-{3-[3-(Cyclopentyloxy)-4-methoxy-phenyl]-pyrrol-1-yl}-3-(2,6-dimethyl-morpholin-4-yl)-propan-2-ol], in data set [1] (10 μM, in duplicate), the “PDE4D3 % inib at 10 μM” value amounted to 36%. For the compound `COc1ccc(-c2ccn(CC(O)CN3CCC(O)CC3)c2)cc1OC1CCCC1` (centres unmarked) [XXVc, 1-(3-{3-[3-(cyclopentyloxy)-4-methoxy-phenyl]-pyrrol-1-yl}-2-hydroxy-propyl)-piperidin-4-ol], in data set [1] (10 μM, in duplicate), the “PDE4D3 % inib at 10 μM” value was determined as 5%.
